Read-outs that look alike come from different tables or passages of the source. Marks after values point to notes of the source that are not given here.
How the values were obtained:
[1] = tested on: carrageenan-induced mouse paw edema; settings: cited from earlier work
[2] = biological target: T1, soybean lipoxygenase (LOX-3) (Glycine max, UniProt P09186); assay: Soybean lipoxygenase (LOX-3) inhibition; format: biochemical; settings: after 5 min of incubation; sodium linoleate 100 μM, pH 9.0; read-out: IC50 Value on LOX-3
T1 sequence (P09186 1-857): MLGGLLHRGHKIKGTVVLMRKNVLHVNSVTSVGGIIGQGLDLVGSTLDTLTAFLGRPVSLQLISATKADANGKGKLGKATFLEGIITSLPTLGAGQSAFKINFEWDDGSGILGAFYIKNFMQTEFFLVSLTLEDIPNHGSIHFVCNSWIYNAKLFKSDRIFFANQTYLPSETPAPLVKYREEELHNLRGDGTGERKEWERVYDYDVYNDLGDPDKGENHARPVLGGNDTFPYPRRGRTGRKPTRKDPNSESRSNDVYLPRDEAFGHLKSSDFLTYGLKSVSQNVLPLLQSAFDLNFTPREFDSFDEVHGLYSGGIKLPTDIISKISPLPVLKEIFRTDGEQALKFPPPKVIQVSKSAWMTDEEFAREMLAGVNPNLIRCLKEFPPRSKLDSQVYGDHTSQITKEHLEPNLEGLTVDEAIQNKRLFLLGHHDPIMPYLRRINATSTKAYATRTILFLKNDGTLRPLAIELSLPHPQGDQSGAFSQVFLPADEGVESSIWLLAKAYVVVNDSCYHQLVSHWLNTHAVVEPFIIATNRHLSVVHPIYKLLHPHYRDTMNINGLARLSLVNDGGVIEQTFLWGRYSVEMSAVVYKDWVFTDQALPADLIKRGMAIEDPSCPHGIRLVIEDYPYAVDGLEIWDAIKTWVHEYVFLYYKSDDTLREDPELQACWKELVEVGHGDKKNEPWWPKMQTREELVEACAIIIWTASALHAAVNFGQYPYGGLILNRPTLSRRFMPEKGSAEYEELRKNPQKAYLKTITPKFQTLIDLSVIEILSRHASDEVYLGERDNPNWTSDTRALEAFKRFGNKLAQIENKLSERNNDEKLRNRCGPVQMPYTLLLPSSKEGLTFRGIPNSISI
Method: The anti-inflammatory effect of the synthesized compounds was initially evaluated in vitro, via their ability to inhibit soybean lipoxygenase (LOX-3).
Lipoxygenase activity was determined using soybean lipoxygenase (250 U/mL) and sodium linoleate (100 μM) as substrate, in Tris–HCl buffer pH 9.0. The test compounds dissolved in methanol were added and the reaction was monitored for 5 min at 28 °C, recording absorbance at 234 nm.

[3] = tested on: carrageenan-induced mouse paw edema; assay: Carrageenan-induced mouse paw edema; format: in vivo; settings: for inhibition in vivo at 300 µmol/kg: Mus musculus, ip, 0.30 mmol/kg i.p., 3.5 h after carrageenan, mean of 6 animals, read-out: % Edema Reduction; for improvement in anti-inflammatory activity: compared to parent flufenamic acid (g) or flufenamol (h)
Method: In vivo anti-inflammatory activity of the synthesized compounds was evaluated as mouse paw edema reduction. Paw edema was induced by subcutaneous injection of a 2% carrageenan suspension in the right paw of mice, the left serving as the control. The activity of the tested compounds (at 0.30 mmol/kg of body weight, i.p.), expressed as % reduction in paw edema 3.5 h after carrageenan injection, is shown in Table 2. […] Moreover, compounds 9 and 10 (antioxidant derivatives of mefenamic acid) caused a 1.5–2-fold improvement in edema reduction compared to that of the parent mefenamic acid (i).
For the in vivo anti-inflammatory activity, Wistar male rats or C57BL/6 mice were injected with 0.025 mL carrageenan (2% w/v solution in saline) i.d. into the right hind paw, with the left paw serving as the control. The test compounds (300 μmol/kg) were given, i.p., after the carrageenan injection, and 3.5 h later, the produced edema was estimated as the paw weight increase. Results are expressed as percentage of the reduction in paw edema and are the means for six animals (per compound).

[4] = Radical scavenging of DPPH; settings: DPPH 200 μM, after incubation for 30 min
Method: The antioxidant activity of compounds 1–17 was evaluated via their ability to scavenge the free radical DPPH.
Compounds dissolved in absolute methanol at concentrations of 25–400 μM were added to an equal volume of a methanolic solution of DPPH (final concentration 200 μM) at room temperature (22 ± 2 °C). Absorbance (517 nm) was recorded at different time intervals for 1 h and results were expressed as IC50 (μM) for DPPH after incubation for 30 min [3].

[5] = tested on: experimentally induced hyperlipidemic mouse model; assay: Tyloxapol (Triton WR 1339)-induced hyperlipidemia; format: in vivo, mice; settings: 84 μmol/kg i.p.; 24 h after tyloxapol
Method: Acute hyperlipidemia was achieved, i.p., by the administration of tyloxapol (Triton WR 1339). The antihyperlipidemic effect of the tested compounds was evaluated as the decrease in total cholesterol (TC) and triglyceride (TG) levels in plasma 24 h after tyloxapol administration. The results are shown in Figure 4A,B. Compounds 9 and 10 reduced TC levels in plasma by 73% and 50%, respectively, and TG levels by 76% and 41%, respectively.
An aqueous solution of Triton WR 1339 was given, i.p., to mice (400 mg/kg of body weight) and one hour later the test compounds (84 μmol/kg of body weight), dissolved in saline or saline only were administered, i.p. After 24 h, blood was taken from the aorta/heart and used for the determination of plasma total cholesterol (TC) and triglyceride (TG) levels, using commercially available kits. Levels of plasma lipids were determined in duplicate while the values presented were the mean from eight animals (per compound).

SMILES | IC50 [2] | melting point | inhibition in vivo at 300 µmol/kg [3] | further results
O=C(O)Cc1ccccc1Nc1c(Cl)cccc1Cl [k, Diclofenac] | – | – | – | % Edema Reduction ([1]; 0.30 mmol/kg i.p.): 61*** [5] %
COc1ccc2c(c1)c(CCOC(=O)C1(C)CCc3c(C)c(O)c(C)c(C)c3O1)c(C)n2C(=O)c1ccc(Cl)cc1 (stereo not drawn) [Compound 17, 2-(1-(4-chlorobenzoyl)-5-methoxy-2-methyl-1H-indol-3-yl)ethyl 6-hydroxy-2,5,7,8-tetramethylchromane-2-carboxylate] | > 150 µM | – | 45% | IC50 [4]: 76 µM
COc1ccc2cc(C(C)CO)ccc2c1 (stereo not drawn) [d, 2-(6-methoxynaphthalen-2-yl)propan-1-ol, reference compound] | 29 µM | – | 40% | –
Cc1cccc(Nc2ccccc2CO)c1C [j, (2-((2,3-dimethylphenyl)amino)phenyl)methanol, reference compound] | – | – | 42% | –
Cc1c(C)c2c(c(C)c1O)CCC(C)(C(=O)OCC(C)c1ccc(CC(C)C)cc1)O2 (stereo not drawn) [Compound 14, 2-(4-isobutylphenyl)propyl6-hydroxy-2,5,7,8-tetramethylchromane-2-carboxylate] | > 150 µM | 69.2 to 70 °C | 42% | IC50 [4]: 34 µM
OCc1ccccc1Nc1cccc(C(F)(F)F)c1 [h, (2-((3-(trifluoromethyl)phenyl)amino)phenyl)methanol, reference compound] | – | – | 22% | –
COc1ccc2c(c1)c(CC(=O)O)c(C)n2C(=O)c1ccc(Cl)cc1 [m, Indomethacin] | – | – | – | % Edema Reduction ([1]; 0.30 mmol/kg i.p.): 55*** [5] %
CC(C)Cc1ccc(C(C)COC(=O)c2cc(C(C)(C)C)c(O)c(C(C)(C)C)c2)cc1 (stereo not drawn) [Compound 2, 2-(4-isobutylphenyl)propyl 3,5-di-tert-butyl-4-hydroxybenzoate] | – | – | 56% | –
CC(C)Cc1ccc(C(C)CO)cc1 (stereo not drawn) [b, Ibuprofenol, reference compound] | – | – | 66% | –
O=C(O)c1ccccc1Nc1cccc(C(F)(F)F)c1 [g, Flufenamic acid] | – | – | – | % Edema Reduction ([1]; 0.15 mmol/kg i.p.): 19**^a [17] %
COc1ccc2cc(C(C)COC(=O)C3(C)CCc4c(C)c(O)c(C)c(C)c4O3)ccc2c1 (stereo not drawn) [Compound 15, 2-(6-methoxynaphthalen-2-yl)propyl 6-hydroxy-2,5,7,8-tetramethylchromane-2-carboxylate] | 9 µM | – | 55% | IC50 [4]: 147 µM; reduction of total cholesterol (TC) levels in plasma [5]: 42%; reduction of triglyceride (TG) levels in plasma [5]: 65%
CC(C)Cc1ccc(C(C)C(=O)O)cc1 (stereo not drawn) [a, Ibuprofen] | – | – | – | % Edema Reduction ([1]; 0.30 mmol/kg i.p.): 57*** [5] %

Continued, in another order:

IC50 [2] | melting point | SMILES | inhibition in vivo at 300 µmol/kg [3] | further results
> 200 µM | – | Cc1c(Cl)cccc1Nc1ccccc1C(=O)OCc1cc(C(C)(C)C)c(O)c(C(C)(C)C)c1 [Compound 5, 3,5-di-tert-butyl-4-hydroxybenzyl 2-((3-chloro-2-methylphenyl)amino)benzoate] | 55% | –
22 µM | – | CC(C)Cc1ccc(C(C)C(=O)OCc2cc(C(C)(C)C)c(O)c(C(C)(C)C)c2)cc1 (stereo not drawn) [Compound 1, 3,5-di-tert-butyl-4-hydroxybenzyl 2-(4-isobutylphenyl)propanoate] | 26% | –
54 µM | 150.4 to 151.3 °C | Cc1c(Cl)cccc1Nc1ccccc1COC(=O)C1(C)CCc2c(C)c(O)c(C)c(C)c2O1 (stereo not drawn) [Compound 16, 2-((3-chloro-2-methylphenyl)amino)benzyl 6-hydroxy-2,5,7,8-tetramethylchromane-2-carboxylate] | 54% | IC50 [4]: 47 µM; reduction of total cholesterol (TC) levels in plasma [5]: 55%; reduction of triglyceride (TG) levels in plasma [5]: 78%
– | 48.4 to 48.7 °C | Cc1c(Cl)cccc1Nc1ccccc1CO [f, (2-((3-chloro-2-methylphenyl)amino)phenyl)methanol] | 43% | –
150 µM | 119.9 to 120.5 °C | CC(C)(C)c1cc(C(=O)OCc2ccccc2Nc2cccc(C(F)(F)F)c2)cc(C(C)(C)C)c1O [Compound 8, 2-((3-(trifluoromethyl)phenyl)amino)benzyl 3,5-di-tert-butyl-4-hydroxybenzoate] | 48% | improvement in anti-inflammatory activity [3]: 2–2.5 fold
122 µM | 147.8 to 149.2 °C | CC(C)(C)c1cc(C(=O)OCCc2ccccc2Nc2c(Cl)cccc2Cl)cc(C(C)(C)C)c1O [Compound 12, 2-((2,6-dichlorophenyl)amino)phenethyl 3,5-di-tert-butyl-4-hydroxybenzoate] | 54% | –
64 µM | 154.1 to 155 °C | COc1ccc2cc(C(C)COC(=O)c3cc(C(C)(C)C)c(O)c(C(C)(C)C)c3)ccc2c1 (stereo not drawn) [Compound 4, 2-(6-methoxynaphthalen-2-yl)propyl 3,5-di-tert-butyl-4-hydroxybenzoate] | 49% | –
68 µM | 149.3 to 149.9 °C | COc1ccc2c(c1)c(CC(=O)OCc1cc(C(C)(C)C)c(O)c(C(C)(C)C)c1)c(C)n2C(=O)c1ccc(Cl)cc1 [Compound 13, 3,5-di-tert-butyl-4-hydroxybenzyl 2-(1-(4-chlorobenzoyl)-5-methoxy-2-methyl-1H-indol-3-yl)acetate] | 39% | –
15 µM | 136.3 to 136.9 °C | Cc1cccc(Nc2ccccc2COC(=O)c2cc(C(C)(C)C)c(O)c(C(C)(C)C)c2)c1C [Compound 10, 2-((2,3-dimethylphenyl)amino)benzyl 3,5-di-tert-butyl-4-hydroxybenzoate] | 54% | improvement in edema reduction ([3]; compared to parent mefenamic acid (i)): 1.5–2 fold; reduction of total cholesterol (TC) levels in plasma [5]: 50%; reduction of triglyceride (TG) levels in plasma [5]: 41%
152 µM | 87.2 to 88 °C | CC(C)(C)c1cc(COC(=O)c2ccccc2Nc2cccc(C(F)(F)F)c2)cc(C(C)(C)C)c1O [Compound 7, 3,5-di-tert-butyl-4-hydroxybenzyl 2-((3-(trifluoromethyl)phenyl)amino)benzoate] | 38% | improvement in anti-inflammatory activity [3]: 2–2.5 fold
> 150 µM | 141.1 to 141.8 °C | Cc1c(Cl)cccc1Nc1ccccc1COC(=O)c1cc(C(C)(C)C)c(O)c(C(C)(C)C)c1 [Compound 6, 2-((3-chloro-2-methylphenyl)amino)benzyl 3,5-di-tert-butyl-4-hydroxybenzoate] | 67% | –
142 µM | 149 to 149.7 °C | CC(C)(C)c1cc(COC(=O)Cc2ccccc2Nc2c(Cl)cccc2Cl)cc(C(C)(C)C)c1O [Compound 11, 3,5-di-tert-butyl-4-hydroxybenzyl 2-(2-((2,6-dichlorophenyl)amino)phenyl)acetate] | 40% | –

Source: publication PMC8399014, “Design of Multifaceted Antioxidants: Shifting towards Anti-Inflammatory and Antihyperlipidemic Activity” (Molecules, 2021)
